Consider ten compounds from ChEMBL document CHEMBL4130363, “Synthesis and pharmacological evaluation of benzamide derivatives as potent and selective sigma-1 protein ligands” (Eur J Med Chem, 2017).

Data set [1] concerns the target Sigma non-opioid intracellular receptor 1 (Homo sapiens, UniProt Q99720). The experiment in a line: Displacement of [3H](+)-pentazocine from S1R in human Jurkat cell membranes after 2 hrs by liquid scintillation counting. In general terms: In a radioligand displacement assay an active substance lowers the binding of a labelled ligand.
Data set [2] has as its target Sigma intracellular receptor 2 (Homo sapiens, UniProt Q5BJF2). The experiment in a line: Displacement of [3H]-DTG from S2R in human Jurkat cell membranes after 1 hr in presence of (+)-pentazocine by liquid scintillation counting.
In the next data set the test system is SH-SY5Y. Nature of the data set: Cytotoxicity against human SH-SY5Y cells assessed as reduction in cell viability after 72 hrs by MTT assay. The data set is classed as cell-based. Background: Tetrazolium dyes change colour on reduction, which living cells bring about.
In the next data set the test system is S1R (sigma-1 receptor). The experiment in a line: Selectivity index, ratio of IC50 for human SH-SY5Y cells to Ki for S1R in human Jurkat cell membranes. Type of data set: toxicity, cell-based.

Some results are limits rather than exact numbers.

Sigma intracellular receptor 2, sequence (Q5BJF2 whole entry): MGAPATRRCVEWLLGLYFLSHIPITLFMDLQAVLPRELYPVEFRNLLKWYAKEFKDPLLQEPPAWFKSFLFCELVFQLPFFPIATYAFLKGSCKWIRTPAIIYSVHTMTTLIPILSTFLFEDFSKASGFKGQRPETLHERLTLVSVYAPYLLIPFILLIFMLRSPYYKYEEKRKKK
Sigma non-opioid intracellular receptor 1, sequence (Q99720 whole entry): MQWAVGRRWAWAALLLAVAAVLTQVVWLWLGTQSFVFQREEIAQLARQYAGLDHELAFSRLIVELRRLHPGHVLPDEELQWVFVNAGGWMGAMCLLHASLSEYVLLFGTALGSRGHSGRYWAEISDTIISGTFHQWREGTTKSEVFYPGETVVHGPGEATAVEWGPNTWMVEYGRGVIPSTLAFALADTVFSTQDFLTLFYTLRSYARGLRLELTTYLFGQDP

Regarding `O=C(NCCCN1CCOCC1)c1ccc(Cl)cc1` [EPROBEMIDE], the Ki in data set [1] is > 100 nM; in data set [2] it was > 200 nM. Moreover, in the data set with SH-SY5Y, the half-inhibitory concentration (IC50) was > 100000 nM.

`O=C(NCCN1CCCC1)c1ccc(Cl)cc1`: the Ki was > 100 nM in data set [1] and > 200 nM in data set [2]. Besides, the IC50 with SH-SY5Y is > 100000 nM.

As to `CN(CCCNC(=O)c1cc(Cl)cc(Cl)c1)Cc1ccccc1`, the IC50 in the data set with SH-SY5Y was found to be 60000 nM. Further, in the data set with S1R (sigma-1 receptor), the selectivity ratio came out at 2610.

On to `O=C(NCCCN1Cc2ccccc2C1)c1ccc(Cl)cc1`, for which the values for the Ki in data set [1] and in data set [2] were 19 nM and 350 nM, respectively. Also, the IC50 in the data set with SH-SY5Y is > 100000 nM. For the same compound, in the data set on S1R (sigma-1 receptor), the selectivity ratio is > 5260.

For the compound `CN(CCCNC(=O)c1ccc(Br)cc1F)Cc1ccccc1`, the Ki in data set [2] was determined as 200 nM. Moreover, the IC50 in the data set on SH-SY5Y was > 100000 nM. Moreover, in the data set with S1R (sigma-1 receptor), the selectivity ratio is > 34500.

Regarding `CN(CCCNC(=O)c1ccc(F)cc1)Cc1ccccc1`, the IC50 in the data set on SH-SY5Y is > 100000 nM. Besides, the selectivity ratio with S1R (sigma-1 receptor) is > 5000.

`CN(CCCNC(=O)c1cccc(Cl)c1)Cc1ccccc1`: the IC50 with SH-SY5Y is > 100000 nM. Further, the selectivity ratio in the data set on S1R (sigma-1 receptor) was > 10000.

For `O=C(NCCN1CCOCC1)c1ccc(Cl)cc1` [MOCLOBEMIDE], the results for the Ki in data set [1] and in data set [2] were > 100 nM and > 200 nM, respectively. Moreover, the IC50 in the data set on SH-SY5Y was > 100000 nM.

In the case of `CN(CCNC(=O)c1cccc(Cl)c1Cl)Cc1ccccc1`, the Ki in data set [1] turned out to be 6.5 nM; in data set [2], 110 nM. In addition, the IC50 with SH-SY5Y is > 100000 nM. Moreover, the selectivity ratio in the data set on S1R (sigma-1 receptor) is > 15400.

Take `CN1CCN(CCNC(=O)c2ccc(Cl)cc2)CC1`: the Ki in data set [1] was > 100 nM; in data set [2], > 200 nM. Also, the IC50 in the data set on SH-SY5Y was > 100000 nM.

A word on the Ki: it is the dissociation constant of the complex between target and ligand, obtained from inhibition or displacement. One may read the IC50 as the concentration needed to halve the response being measured.
